Here are results for two compounds from patent publication US12268669B2, “Pharmaceutical compositions and methods comprising a combination of a benzoxazole transthyretin stabilizer and an additional therapeutic agent” (Pfizer Inc., priority 2018, dated 2025).

In experiment [1] the test system is amyloidogenic light chains. The settings on record: cited from earlier work.
Experiment [2] deals with TTR tetramers (WT or V122I). As to the kind of experiment: WT and V122I TTR fibril formation inhibition assay (turbidity at 350 nm, acidic conditions, 72 h). The class given is biochemical. The settings on record: WT or V122I TTR 3.6 μM; compound 3.6 and 7.2 μM; pH 4.4 or 4.5; 72 h (values only in FIG. 1 and 2). The protocol:
Inhibition of WT and V122I TTR fibril formation under acidic conditions after 72 h-a sufficient period for aggregation to go to completion in the vehicle control (See Hurshman, A. R., White, J. T., Powers, E. T., Kelly, J. W.; Transthyretin aggregation under partially denaturing conditions is a downhill polymerization. Biochemistry 2004, 43, 7365-7381). Purified TTR tetramers (WT or V122I at 3.6 μM) were mixed with DMSO (vehicle control), Fx-1005 (positive control, See Razavi H, et al. Benzoxazoles as transthyretin amyloid fibril inhibitors: synthesis, evaluation, and mechanism of action. Angew Chem Int Ed Engl 2003, 42, 2758-2761), Fx-1003 (positive control) or PTC124 at final concentrations of 3.6 and 7.2 μM, and incubated for 30 minutes at 25° C. After adjusting the pH to 4.4 or 4.5, samples were incubated at 37° C. for 72 h. The turbidity was then measured at 350 nm using a UV-vis spectrometer. All endpoint amyloid fibril formation yields (which are slightly different for WT and V122I) were normalized for each allele to amyloidogenesis in the absence of stabilizer, assigned to be 100% fibril formation. Therefore, 5% fibril formation corresponds to a compound inhibiting 95% of TTR fibril formation after 72 h (See Miroy, G. J., et al. Inhibiting transthyretin amyloid fibril formation via protein stabilization. Proc Natl Acad Sci USA 1996, 93, 15051-15056). […]

`O=C(O[C@@H]1Cc2c(O)cc(O)cc2O[C@@H]1c1cc(O)c(O)c(O)c1)c1cc(O)c(O)c(O)c1`: the “prevention of fibril formation” value in experiment [1] (amyloidogenic light chains) was “prevent fibril formation”. In experiment [1], the “binding to amyloidogenic light chains” value was “bind to amyloidogenic light chains”. On to `O=C(O)c1cccc(-c2noc(-c3ccccc3F)n2)c1` [Ataluren, 3-[5-(2-fluorophenyl)-1,2,4-oxadiazol-3-yl]benzoic acid], for which, in experiment [2], the “inhibition of TTR fibril formation” value is “inhibit TTR fibril formation”.
